# Target: T1, Dimer of Gag-Pol polyprotein [489-587] (Human immunodeficiency virus 1, UniProt P12497)
# T1 construct: 489-587
# Assay: Protease Inhibition Assay
# Conditions: pH 5; 22 °C
# Excerpt: HIV-1 protease was purified and refolded from E. coli inclusion bodies. […] In the presence of HIV-l protease, the substrate is rapidly cleaved into two parts. The biotinylated amino terminal fragment binds to the avidin beads while the FITC-containing carboxy1 terminal fragment is removed through the membrane. […] The bound fluorescence is obtained by processing on an IDEXX Screen Machine. Determination of Ki values with this assay requires analysis under conditions in which substrate concentration resides substantially below Km and the inhibitor concentrations greatly exceeds the Ki value and the enzyme concentration.
smiles,measurement,value
"O=c1oc2c(c(O)c1[C@H](c1cccc(NS(=O)(=O)c3ccccc3)c1)C1CC1)CCCCCC2 [N-{3-[(S)-cyclopropyl({4-hydroxy-2-oxo-2H,5H,6H,7H,8H,9H,10H-cycloocta[b]pyran-3-yl})methyl]phenyl}benzenesulfonamide]",Ki,3 nM

# From BindingDB's records for doi:10.1021/jm00026a002 (Upjohn, 1995)
